Source: patent publication US6225478A, “Iridoid derivatives and neovascularization inhibitors containing the same as active ingredient” (Tsumura & Co., priority 1999, dated 2001)

Columns and labels:
[1] = tested on: human umbilical-vein endothelial cells (HUVEC); assay: Tube Formation Assay (TFA) Test, HUVEC in collagen gel; format: cell-based; conditions: Homo sapiens, HUVEC, Tables 75-83; 0.32 mM sample solution; method as for Compounds 1 through 60; read-out: TFA Inhibition rate (%)
Procedure: Furthermore, the sample liquids of compounds used in the CPA and CMA tests were prepared in the manner described below. Firstly, after weighing out each compound, a calculated amount of DMSO was added. After dissolving the compound in the DMSO, phosphate buffered physiological saline (PBS (-)) was added to bring the sample concentration to 1 mg/ml in PBS (-). The amount of DMSO used to dissolve the compounds was adjusted in advance to that the concentration of DMSO at that time was 5%. The resulting liquids were diluted 10-fold with 5% DMSO-PBS (-) solution to prepare sample solutions having a concentration of 0.1 mg/ml. In the TFA test, 320 μl of the prepared 1 mg/ml sample solutions were removed followed by addition of 680 μl of PBS (-) to prepare samples having a concentration of […]. Moreover, 100 μl of this solution was removed followed by addition of 900 μl of PBS (-) to dilute 10-fold and prepare samples having a concentration of 1 μg/ml. P [Cell Proliferation Assay (CPA) Test]
To begin with, 8 volumes of Type 1-A cell matrix (manufactured by Gibco Co.), 1 volume of 10×M119, and 1 volume of reconstituted buffer [200 mM HEPES, 0.05 N sodium hydroxide, 260 mM sodium bicarbonate] were slowly mixed under cooling with ice while avoiding bubbling to form a collagen gel. This collagen gel was distributed in a NUNC 24-well plate at 310 μl/well followed by allowing to stand undisturbed for 2 hours at 37° C. to solidify the gel.
Next, the 7th subculture of HUVEC (1×10^5 cells/ml) obtained from the first generation in the same manner as above were disseminated at 500 μl/well. The cells were cultured for 2 hours at 37° C. to allow the cells to make contact with the collagen. After then removing the medium by aspiration, 50 μl of sample solution were added followed by addition of 310 μl/well of freshly prepared collagen gel and culturing for 1 hour and 10 minutes at 37° C. to solidify the double-layer gel.
1 ml/well of M-199 medium containing 20% FCS, 30 ng /ml of b-FGF and 0.1 μM PMA were added to the wells followed by culturing for 20 hours at 37° C. in the presence of 5% CO2.
Measurement of the lengths of the formed tubes was performed using the public domain NIH Image with a computer.
Evaluation was performed by calculating the inhibition rate (%) of tube formation according to the following formula.
Inhibition rate (%)=100-((formed tube length in presence of sample-formed tube length in presence of control (-))×100/(formed tube length in presence of control (+)-formed tube length in presence of control (-)))
(§1) Samples were prepared using the present compounds of Compound No. I-60 through I-315. More specifically, 32 μl of a 20 mM sample solution dissolved in dimethylsulfoxide (DMSO) were removed and brought to a volume of 1 ml with phosphate-buffered saline (PBS) to prepare a sample solution having a concentration of 0.32 mM (containing 3.2% DMSO).
The testing method used for these compounds was the same as that used for the compounds of Compound No. 1 through 60 previously described.

[2] = tested on: HUFEC; assay: Cell Migration Assay (CMA) Test, inhibitory rate with control (-) correction; format: cell-based, human; conditions: Homo sapiens, 24 h, 125 μl of 0.32 mM sample solution in 4.0 ml medium, 80% or more = remarkable
Procedure: as §1
After disseminating the 7th subculture of […] obtained from the first generation at 4 ml/well (3.0×10^5 cells/well) in a collagen-coated 6-well plate (NUNC), the cells were cultured for 48 hours at 37° C. in the presence of 5% CO2. The cells reached nearly a completely confluent state as a result of this culturing.
A double-edged, disposable razor blade was divided into four sections, of which one of those sections was pinched between a pair of forceps. Using this piece of razor blade, the cell surface in the above confluent state was scraped off.
After washing the surface of the wells from which the cells had been scraped off with medium, 4.0 ml of fresh M199 (2+) medium were placed in the wells. 4.0 ml of M199 medium were added to the control (-) well.
125 μl of sample solution (0.32 mM, containing 3.2% dimethylsulfoxide) were added to the wells.
125 μl of PBS solution containing 3.2% dimethylsulfoxide were added to the control wells instead of sample. The cells were cultured for 24 hours at 37° C. in the presence of 5% CO2. After discarding the culture liquid, the cells were fixed for 30 minutes with methanol. Next, after […] the cells for 4 hours with Giemsa stain, the plates were washed with tap water and air dried.
Measurement of cell migration was performed by microscopically counting the number of cells that had newly migrated within the range of a 1 mm×1 mm block. […] The total number of cells counted in blocks 1 through 5 were then totaled to determine the overall total number of cells. Four fields were counted for each well.
Evaluation was performed determining the cell migration inhibitory rate (%) according to the following equation.
Inhibitory rate=100-((number of migrating cells to which sample was added-number of migrating cells of control (-))×100/(number of migrating cells of control (+)-number of migrating cells of control (-)))
If this inhibitory rate was 80% or more, cell migration was assessed as being remarkable.

Structure (SMILES) | inhibition at 320 µM (stock) [1] | inhibition at 320 µM (stock) [2]
CCN1CCN(C(=O)O[C@@H]2OC=C(C(=O)OC)[C@H]3CC=C(C)[C@@H]23)CC1 [I-95] | 4.5% | 9.8%
COC(=O)C1=CO[C@@H](OC(=O)NCC(OC)OC)[C@@H]2C(C)=CC[C@H]12 [I-96] | 19.7% | 5.9%
CCN(CCO)C(=O)O[C@@H]1OC=C(C(=O)OC)[C@H]2CC=C(C)[C@@H]12 [I-97] | 29.1% | 7.7%
COC(=O)C1=CO[C@@H](OC(=O)NCCc2ccc(OC)cc2)[C@@H]2C(C)=CC[C@H]12 [I-98] | 3.8% | 2.7%
COC(=O)C1=CO[C@@H](OC(=O)NCCc2cccc(F)c2)[C@@H]2C(C)=CC[C@H]12 [I-99] | 8.6% | 9.9%
COC(=O)C1=CO[C@@H](OC(=O)NCCc2ccc(O)cc2)[C@@H]2C(C)=CC[C@H]12 [I-100] | 23.3% | 21.9%
COC(=O)C1=CO[C@@H](OC(=O)NCCOCCO)[C@@H]2C(C)=CC[C@H]12 [I-101] | 6.3% | 15.7%
CCC(CC)NC(=O)O[C@@H]1OC=C(C(=O)OC)[C@H]2CC=C(C)[C@@H]12 [I-102] | 8.2% | 15.6%
COC(=O)C1=CO[C@@H](OC(=O)NC2CCCCCC2)[C@@H]2C(C)=CC[C@H]12 [I-103] | 8.3% | 5.1%
COC(=O)C1=CO[C@@H](OC(=O)NCCCCCO)[C@@H]2C(C)=CC[C@H]12 [I-104] | 3.8% | 24.1%
COC(=O)C1=CO[C@@H](OC(=O)NCCCN(C)C)[C@@H]2C(C)=CC[C@H]12 [I-105] | 5.6% | 14.9%
COC(=O)C1=CO[C@@H](OC(=O)NCc2ccc(OC(F)(F)F)cc2)[C@@H]2C(C)=CC[C@H]12 [I-106] | 26.8% | 6.7%
COC(=O)C1=CO[C@@H](OC(=O)NCCc2ccc(F)cc2)[C@@H]2C(C)=CC[C@H]12 [I-107] | 4.4% | 31.2%
COC(=O)C1=CO[C@@H](OC(=O)NCc2ccc(F)cc2)[C@@H]2C(C)=CC[C@H]12 [I-108] | 3% | 11.7%
COC(=O)C1=CO[C@@H](OC(=O)NCc2ccc(Cl)cc2)[C@@H]2C(C)=CC[C@H]12 [I-109] | 7.2% | 21.5%
COC(=O)C1=CO[C@@H](OC(=O)NCc2ccco2)[C@@H]2C(C)=CC[C@H]12 [I-110] | 4.6% | 7.8%
COC(=O)C1=CO[C@@H](OC(=O)N2CCCCC2)[C@@H]2C(C)=CC[C@H]12 [I-111] | 2.9% | 9.4%
COC(=O)C1=CO[C@@H](OC(=O)NCCCc2ccccc2)[C@@H]2C(C)=CC[C@H]12 [I-112] | 7.9% | 6.8%
COC(=O)C1=CO[C@@H](OC(=O)NC2CC2)[C@@H]2C(C)=CC[C@H]12 [I-113] | 7.9% | 34.4%
COC(=O)C1=CO[C@@H](OC(=O)N2CCSCC2)[C@@H]2C(C)=CC[C@H]12 [I-114] | 6.8% | 9.4%

Structure (SMILES) | inhibition at 320 µM (stock) [1] | inhibition at 320 µM (stock) [2]
COC(=O)C1=CO[C@@H](OC(=O)NCCc2c[nH]c3ccccc23)[C@@H]2C(C)=CC[C@H]12 [I-115] | 6.8% | 3.1%
COC(=O)C1=CO[C@@H](OC(=O)NCc2ccncc2)[C@@H]2C(C)=CC[C@H]12 [I-116] | 6.9% | 5.6%
COC(=O)C1=CO[C@@H](OC(=O)NCCN(C)C)[C@@H]2C(C)=CC[C@H]12 [I-117] | 26.8% | 28.1%
COC(=O)C1=CO[C@@H](OC(=O)NCCN2CCCCC2)[C@@H]2C(C)=CC[C@H]12 [I-118] | 5.1% | 31.3%
COC(=O)C1=CO[C@@H](OC(=O)NCCc2ccccc2)[C@@H]2C(C)=CC[C@H]12 [I-119] | 4.2% | 18.8%
COC(=O)C1=CO[C@@H](OC(=O)N2CCc3ccccc3C2)[C@@H]2C(C)=CC[C@H]12 [I-120] | 7.8% | 3.1%
COCCCNC(=O)O[C@@H]1OC=C(C(=O)OC)[C@H]2CC=C(C)[C@@H]12 [I-121] | 9.4% | 7.1%
COC(=O)C1=CO[C@@H](OC(=O)N(C)CCc2ccc(OC)c(OC)c2)[C@@H]2C(C)=CC[C@H]12 [I-122] | 9.1% | 10.3%
C=CCNC(=O)O[C@@H]1OC=C(C(=O)OC)[C@H]2CC=C(C)[C@@H]12 [I-123] | 14.1% | 8%
COC(=O)C1=CO[C@@H](OC(=O)NCCCN2CCOCC2)[C@@H]2C(C)=CC[C@H]12 [I-124] | 2.6% | 5.7%
C=CCN(CC=C)C(=O)O[C@@H]1OC=C(C(=O)OC)[C@H]2CC=C(C)[C@@H]12 [I-125] | 2.6% | 17.2%
COC(=O)C1=CO[C@@H](OC(=O)NCc2ccccc2F)[C@@H]2C(C)=CC[C@H]12 [I-126] | 4% | 6.5%
COC(=O)C1=CO[C@@H](OC(=O)NCc2cccc(F)c2)[C@@H]2C(C)=CC[C@H]12 [I-127] | 5.3% | 5.3%
COC(=O)C1=CO[C@@H](OC(=O)NCc2cccc(C(F)(F)F)c2)[C@@H]2C(C)=CC[C@H]12 [I-128] | 9.4% | 8.7%
COC(=O)C1=CO[C@@H](OC(=O)NCc2ccc3c(c2)OCO3)[C@@H]2C(C)=CC[C@H]12 [I-129] | 19.5% | 4.3%
COC(=O)C1=CO[C@@H](OC(=O)N2CCN(c3cccc(C(F)(F)F)c3)CC2)[C@@H]2C(C)=CC[C@H]12 [I-130] | 5.5% | 7.5%
COC(=O)C1=CO[C@@H](OC(=O)NCc2nc3ccccc3[nH]2)[C@@H]2C(C)=CC[C@H]12 [I-131] | 7.2% | 19.5%
COC(=O)C1=CO[C@@H](OC(=O)NCC#N)[C@@H]2C(C)=CC[C@H]12 [I-132] | 3.9% | 15.6%
COC(=O)C1=CO[C@@H](OC(=O)NCc2ccc(S(N)(=O)=O)cc2)[C@@H]2C(C)=CC[C@H]12 [I-133] | 9.5% | 3.9%
COC(=O)C1=CO[C@@H](OC(=O)NCCS)[C@@H]2C(C)=CC[C@H]12 [I-134] | 8.6% | 7.1%
